Experimental data from patent publication US7033765B1, “Site-specific drug delivery” (Toronto Research Chemicals, Inc., priority 1997, dated 2006).
Values belong to the compound of their own block, whether it stands above or below them.

Assays:
[1] = test system: Na+ channel proteins; experiment: Whole-cell Na+ current recordings with site-specific agents (channel type not stated); type: cell-based; details: for slow component of recovery from inactivation in modified channels: FIG. 8B
Experimental: (§1) For oocyte recordings, whole-cell currents were recorded at room temperature (approximately 23° C.) using a two-electrode voltage-clamp with 3 M KCl in the pipette and a bath solution containing: 96 mM NaCl, 4 mM KCl, 1 mM MgCl2, 1 mM CaCl2 and 10 mM HEPES (pH=7.6). Electrode pipettes were fabricated from 1.2 mm outer diameter thin-walled borosilicate glass (TW120F-6, World Precision Instruments Inc., Sarasota, Fla.) pulled on a Sutter puller (model P-87). Pipette tips were broken to a diameter of approximately 0.1 mm and plugged with agar made with 3 M KCl for a final resistance of 1-4 MΩ. The circuitry of the amplifier compensated for electrode series resistance (Oocyte Clamp OC-725A, Warner Instruments Inc., Hampden, Conn., USA). Leak subtraction was accomplished using a P/8 protocol from a holding potential of −120 mV. Current was filtered at 2 kHz and digitized at 10 kHz using an IBM-compatible computer, a Warner analog-digital interface (model PP-50 Lab 1), and custom acquisition software. In order to minimize difficulties associated with voltage-clamping oocytes expressing large numbers of channel proteins, whole-cell recordings were limited to oocytes expressing less than 5 μAmps of peak current.
(§2) The desired concentrations of local channel protein anesthetic drugs in ND96 were introduced to the bath by perfusion with at least 30 mL (bath volume=0.6 mL). Total bath exchange took less than 3 minutes and the drugs were allowed to equilibrate with the oocytes for a minimum of 6 minutes prior to recording.
(§3) Current-voltage relationships were produced by stepping the membrane potential from −60 to +50 mV by increments of 5 mV from a holding potential of −80 mV. A repetition frequency of 0.2 Hz was used for such voltage families. Steady-state activation curves of whole-cell currents were calculated from the current-voltage relationships by scaling the peak currents by the net driving force (i.e., V−Erev) using the equation g=I/(V−Erev) where Erev=+45 to +60 mV. Steady-state fast-inactivation curves were constructed by normalizing the current recorded in test pulses to −10 mV following 50 msec prepulses to voltages ranging from −100 to −10 mV. A repetition frequency of 0.2 Hz was used for the steady-state inactivation protocol. Recovery from inactivation was assessed using a two-pulse protocol, in which identical depolarizing voltage pulses to −20 mV for 50 msec were applied to oocytes before (conditioning) and after (test) a variable duration repolarization to −80 mV (recovery potential). The peak current evoked by the second (test) depolarization was normalized to the amplitude of the first (conditioning) depolarization and represents the fraction of channel proteins that had recovered from inactivation during the interpulse recovery period.
(§4) Preliminary studies have been performed on four prototypes of the drug illustrated in FIG. 3. Studies using these drugs were performed on three distinct types of Na^+ channel proteins: skeletal muscle Na^+ channel proteins expressed in Xenopus sp. oocytes, native heart Na^+ channel proteins in isolated rat ventricular myocytes and mutated skeletal muscle Na^+ channel proteins (i.e., Y401C) in which the naturally occurring tyrosine at position 401 was replaced with cysteine, the residue naturally found in heart. Native heart Na^+ channel proteins and Y401C channel proteins are referred to as “heart-like” Na^+ channel proteins.

[2] = molecular target: T1, Y401C Na+ channels (mutated rat skeletal muscle sodium channel protein μ1-2) (Rattus norvegicus, UniProt P15390, Y401C); experiment: Two-electrode voltage-clamp of Y401C Na+ channels expressed in Xenopus oocytes; type: cell-based
T1 construct: expressed in transfected cells; host or cells: Xenopus laevis oocytes (injected)
T1 sequence (P15390 whole entry Y401C): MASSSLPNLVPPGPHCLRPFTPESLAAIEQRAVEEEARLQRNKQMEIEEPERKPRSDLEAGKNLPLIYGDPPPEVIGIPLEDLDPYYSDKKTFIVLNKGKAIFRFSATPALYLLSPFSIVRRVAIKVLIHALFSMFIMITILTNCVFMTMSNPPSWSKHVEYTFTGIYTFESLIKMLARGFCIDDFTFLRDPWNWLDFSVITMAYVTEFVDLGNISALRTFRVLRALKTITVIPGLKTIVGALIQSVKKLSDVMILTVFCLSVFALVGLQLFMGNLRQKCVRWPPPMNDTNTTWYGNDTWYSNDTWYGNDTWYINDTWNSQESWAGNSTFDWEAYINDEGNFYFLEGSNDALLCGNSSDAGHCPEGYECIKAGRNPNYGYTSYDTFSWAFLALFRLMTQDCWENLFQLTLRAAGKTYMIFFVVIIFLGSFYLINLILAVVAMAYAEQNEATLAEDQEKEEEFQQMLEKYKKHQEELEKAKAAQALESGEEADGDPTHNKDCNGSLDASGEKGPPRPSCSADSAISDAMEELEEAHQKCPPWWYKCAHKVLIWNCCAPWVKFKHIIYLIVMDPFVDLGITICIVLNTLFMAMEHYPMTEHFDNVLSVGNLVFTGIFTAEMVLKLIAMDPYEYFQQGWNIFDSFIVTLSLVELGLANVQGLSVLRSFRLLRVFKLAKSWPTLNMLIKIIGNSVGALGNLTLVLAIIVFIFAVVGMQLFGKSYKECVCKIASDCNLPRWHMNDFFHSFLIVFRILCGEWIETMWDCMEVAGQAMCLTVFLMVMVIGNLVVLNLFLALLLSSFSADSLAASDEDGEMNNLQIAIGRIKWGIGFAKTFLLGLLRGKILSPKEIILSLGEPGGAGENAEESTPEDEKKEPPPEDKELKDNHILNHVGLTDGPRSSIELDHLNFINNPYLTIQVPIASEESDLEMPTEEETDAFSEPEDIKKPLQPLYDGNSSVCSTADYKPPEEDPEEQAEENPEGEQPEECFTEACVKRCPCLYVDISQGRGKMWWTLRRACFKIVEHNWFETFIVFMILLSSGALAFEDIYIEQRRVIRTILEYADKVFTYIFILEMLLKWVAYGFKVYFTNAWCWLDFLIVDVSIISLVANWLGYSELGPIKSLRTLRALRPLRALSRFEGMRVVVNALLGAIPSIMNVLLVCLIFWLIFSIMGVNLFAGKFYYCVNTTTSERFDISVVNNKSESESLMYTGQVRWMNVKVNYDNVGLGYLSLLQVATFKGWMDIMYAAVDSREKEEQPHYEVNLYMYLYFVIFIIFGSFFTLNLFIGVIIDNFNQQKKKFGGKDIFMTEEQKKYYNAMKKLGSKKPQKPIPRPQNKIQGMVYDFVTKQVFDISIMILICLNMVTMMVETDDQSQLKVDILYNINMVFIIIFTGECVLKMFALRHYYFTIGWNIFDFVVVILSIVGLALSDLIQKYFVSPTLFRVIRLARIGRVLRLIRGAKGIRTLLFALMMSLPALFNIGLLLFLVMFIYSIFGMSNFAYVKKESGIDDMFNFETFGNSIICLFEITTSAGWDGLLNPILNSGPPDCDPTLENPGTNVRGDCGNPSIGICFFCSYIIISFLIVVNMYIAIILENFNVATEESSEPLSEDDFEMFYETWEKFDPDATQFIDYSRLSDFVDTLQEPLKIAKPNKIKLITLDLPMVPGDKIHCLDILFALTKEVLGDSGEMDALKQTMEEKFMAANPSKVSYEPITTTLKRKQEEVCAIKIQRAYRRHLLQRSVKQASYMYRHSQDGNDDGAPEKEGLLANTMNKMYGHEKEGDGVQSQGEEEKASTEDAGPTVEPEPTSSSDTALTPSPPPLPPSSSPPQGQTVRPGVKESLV
T1 sequence (Q00954 19-218 partner): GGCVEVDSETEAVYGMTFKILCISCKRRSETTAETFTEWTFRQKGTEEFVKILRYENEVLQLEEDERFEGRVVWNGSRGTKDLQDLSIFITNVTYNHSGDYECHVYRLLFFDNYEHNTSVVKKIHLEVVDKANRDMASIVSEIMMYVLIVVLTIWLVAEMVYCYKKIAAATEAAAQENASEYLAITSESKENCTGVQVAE

[3] = molecular target: T2, HH1 Na+ channels (Homo sapiens, UniProt Q14524); experiment: Two-electrode voltage-clamp of HH1 Na+ channels recorded in oocytes; type: cell-based
T2 construct: expressed in transfected cells; host or cells: Xenopus laevis oocytes (injected)
T2 sequence (Q14524 whole entry): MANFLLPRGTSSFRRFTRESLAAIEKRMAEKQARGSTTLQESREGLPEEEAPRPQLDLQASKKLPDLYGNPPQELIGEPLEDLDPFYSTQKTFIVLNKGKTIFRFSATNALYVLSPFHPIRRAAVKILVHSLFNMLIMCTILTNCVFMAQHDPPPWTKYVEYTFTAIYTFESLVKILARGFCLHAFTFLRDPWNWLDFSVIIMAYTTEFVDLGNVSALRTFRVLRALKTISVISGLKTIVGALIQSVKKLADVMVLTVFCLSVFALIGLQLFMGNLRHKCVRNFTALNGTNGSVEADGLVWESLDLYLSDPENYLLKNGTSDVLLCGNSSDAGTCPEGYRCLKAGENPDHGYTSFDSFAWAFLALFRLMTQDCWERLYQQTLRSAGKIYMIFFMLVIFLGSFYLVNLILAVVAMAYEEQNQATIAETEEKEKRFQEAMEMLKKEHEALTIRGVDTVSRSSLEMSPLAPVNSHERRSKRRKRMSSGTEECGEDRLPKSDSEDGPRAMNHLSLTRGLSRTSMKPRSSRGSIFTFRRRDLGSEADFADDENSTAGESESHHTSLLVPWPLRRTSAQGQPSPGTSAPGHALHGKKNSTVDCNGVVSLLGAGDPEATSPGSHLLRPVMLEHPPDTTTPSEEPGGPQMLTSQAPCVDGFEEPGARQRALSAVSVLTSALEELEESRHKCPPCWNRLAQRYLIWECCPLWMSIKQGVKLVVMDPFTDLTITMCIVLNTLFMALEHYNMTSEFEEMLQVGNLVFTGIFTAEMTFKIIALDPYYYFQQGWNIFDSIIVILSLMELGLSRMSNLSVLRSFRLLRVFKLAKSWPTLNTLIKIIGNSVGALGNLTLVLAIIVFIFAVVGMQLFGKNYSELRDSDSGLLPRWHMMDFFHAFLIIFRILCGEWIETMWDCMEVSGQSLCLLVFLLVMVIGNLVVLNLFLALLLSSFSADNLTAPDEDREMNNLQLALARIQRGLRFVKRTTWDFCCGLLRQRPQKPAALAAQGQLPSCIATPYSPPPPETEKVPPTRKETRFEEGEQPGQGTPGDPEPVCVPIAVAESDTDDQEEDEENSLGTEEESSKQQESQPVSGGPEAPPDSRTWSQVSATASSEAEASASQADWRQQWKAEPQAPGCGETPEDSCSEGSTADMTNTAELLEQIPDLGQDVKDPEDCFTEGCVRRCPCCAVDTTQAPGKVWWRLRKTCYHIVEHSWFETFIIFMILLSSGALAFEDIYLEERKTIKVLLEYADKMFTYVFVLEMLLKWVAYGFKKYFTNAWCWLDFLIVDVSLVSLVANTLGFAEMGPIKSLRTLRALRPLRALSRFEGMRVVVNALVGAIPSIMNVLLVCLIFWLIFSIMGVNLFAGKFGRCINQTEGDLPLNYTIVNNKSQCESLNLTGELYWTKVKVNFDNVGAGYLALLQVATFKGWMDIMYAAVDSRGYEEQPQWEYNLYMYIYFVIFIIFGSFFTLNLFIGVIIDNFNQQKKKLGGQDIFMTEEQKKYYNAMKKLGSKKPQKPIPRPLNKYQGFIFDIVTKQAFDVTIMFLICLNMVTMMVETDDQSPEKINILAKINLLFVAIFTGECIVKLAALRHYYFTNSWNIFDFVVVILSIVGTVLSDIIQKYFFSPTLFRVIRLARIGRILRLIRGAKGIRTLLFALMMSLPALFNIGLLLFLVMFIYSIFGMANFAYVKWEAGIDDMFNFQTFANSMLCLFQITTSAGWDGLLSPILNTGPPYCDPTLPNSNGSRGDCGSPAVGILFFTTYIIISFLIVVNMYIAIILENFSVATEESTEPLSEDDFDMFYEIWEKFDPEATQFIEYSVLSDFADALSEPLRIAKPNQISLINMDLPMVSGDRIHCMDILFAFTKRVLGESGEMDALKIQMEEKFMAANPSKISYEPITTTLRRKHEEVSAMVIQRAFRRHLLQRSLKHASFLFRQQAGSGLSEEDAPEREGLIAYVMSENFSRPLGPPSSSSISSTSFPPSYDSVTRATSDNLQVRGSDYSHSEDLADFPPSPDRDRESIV
Experimental: (§5) Oocytes were removed from adult female Xenopus.laevis frogs (NASCO, Fort Atkinson, Wis.; XENOPUS, Ann Arbor, Mich.) that had been anesthetized by immersion for 10-25 minutes in a 0.25% solution of tricaine (Sigma Chemical Co., St. Louis, Mo.) in tap water. A 5-fold excess of Na^+ channel protein β subunits compared to α subunits minimized the altered gating properties of Na^+ channel proteins in oocytes. Injected oocytes were incubated at 22° C. for 24-48 hr prior to recording.
as §1, §2, §3

[4] = molecular target: T3, skeletal muscle (rSkM1) Na+ channels (Rattus norvegicus, UniProt P15390); experiment: Two-electrode voltage-clamp of skeletal muscle (rSkM1) Na+ channels recorded in oocytes; type: cell-based
T3 construct: expressed in transfected cells; host or cells: Xenopus oocytes (injected)
T3 sequence (P15390 whole entry): as the sequence (P15390 whole entry Y401C) above, with C401Y counted along it
T3 sequence (Q00954 19-218 partner): as the sequence (Q00954 19-218 partner) above
Experimental: as §5
For oocyte recordings, whole-cell currents were recorded at room temperature (approximately 23° C.) using a two-electrode voltage-clamp with 3 M KCl in the pipette and a bath solution containing: 96 mM NaCl, 4 mM KCl, 1 mM MgCl2, 1 mM CaCl2 and 10 mM HEPES (pH=7.6). Electrode pipettes were fabricated from 1.2 mm outer diameter thin-walled borosilicate glass (TW120F-6, World Precision Instruments Inc., Sarasota, Fla.) pulled on a Sutter puller (model P-87). Pipette tips were broken to a diameter of approximately 0.1 mm and plugged with agar made with 3 M KCl for a final resistance of 1-4 MΩ. The circuitry of the amplifier compensated for electrode series resistance (Oocyte Clamp OC-725A, Warner Instruments Inc., Hampden, Conn., USA). […]
as §3, with “A repetition frequency of 0.2 Hz was used for such voltage families.” left out, “A repetition frequency of 0.2 Hz was used for the steady-state inactivation protocol.” left out, “The peak current evoked by the second (test) depolarization was normalized to the amplitude of the first (conditioning) depolarization and represents the fraction of channel proteins that had recovered from inactivation during the interpulse recovery period.” left out

[5] = molecular target: T4, native heart Na+ channel proteins (Rattus norvegicus, UniProt P15389); experiment: Patch-clamp recording of native heart Na+ channels in isolated rat ventricular myocytes; type: cell-based
T4 construct: native heart Na^+ channel proteins in isolated rat ventricular myocytes; endogenous in cells; host or cells: isolated rat ventricular myocytes
Experimental: Similar recording methods were used with isolated rat ventricular myocytes using the patch-clamp recording technique.
as §4

[6] = test system: cardiac Na+ channels; experiment: DTT and Cd2+ test of C2 anchoring to the pore cysteine; type: cell-based
Description: To determine the role of the cysteine in the pore of cardiac Na^+ channel proteins, effects of C2 on Na^+ channel proteins were examined in the presence of Cd^2+ and dithiothreitol (DTT). […] Thus, it appears that C2 is linked to the Na^+ channel protein via a disulfide bond.
Cd^2+ binds with very high affinity to free sulfhydryls but not disulfide linked sulfhydryls. To determine whether the cysteines are binding to the drug, after washout of the C2 from Na^+ channel proteins channel proteins, Cd^2+ was added. […] Following DTT application, C2 modified channel proteins restore their sensitivity to Cd^2+ and this restoration occurs simultaneous with the reversal of the local anesthetic effects.

[7] = during application of 500 μM C2
[8] = repetitive depolarization to −10 mV at 10 Hz, 30 μM lidocaine
[9] = with 30 μM lidocaine, Y401C channels
[10] = with 30 μM lidocaine, HH1 channels

melting point: 85 to 86 °C
Compound: CS(=O)(=O)SCCCCCCOC(=O)c1ccc(N)cc1 [Formula C6, 8-(4-aminophenyl)-8-oxo-7-oxaoctyl methanethiosulfonate]
potency relative to C2 [1]: far more potent than C2

melting point: 73 to 74 °C
Compound: CS(=O)(=O)SCCCCCCCCCCOC(=O)c1ccc(N)cc1 [Formula C10, 12-(4-aminophenyl)-12-oxo-11-oxadodecyl methanethiosulfonate]

reversibility of effects on washout ([2]; Y401C channels): inability to wash out
time constant for recovery from inactivation ([2]; after C2 application (washout)): 40.4 ms
time constant for recovery from inactivation [2, 7]: 39.0 ms
time constant for recovery from inactivation ([3]; after the application of C2 (washout)): 66 ms
time constant for recovery from inactivation [3, 7]: 45 ms
time constant for recovery from inactivation ([4]; after C2 washout): 13.7 ms
time constant for recovery from inactivation ([4]; in the presence of 500 μM C2): 56.7 ms
reversibility on washout ([4]; skeletal tissue): washed out
reversibility of binding on washout [5]: irreversible
effect of DTT on the irreversible binding after washout ([6]; presence of DTT): totally inhibited
melting point: 112 to 113 °C
Compound: CS(=O)(=O)SCCOC(=O)c1ccc(N)cc1 [Formula C2, 4-(4-aminophenyl)-4-oxo-3-oxabutyl methanethiosulfonate]
use-dependence of Na+ channel current inhibition [1]: very little use-dependent block
recovery from inactivation ([1]; 100 μM to 1 mM): slowing
steady-state inactivation curve ([1]; 100 μM to 1 mM): leftward shifts
whole-cell Na+ current ([1]; 100 μM to 1 mM): decreases
whole-cell Na+ current decay following channel activation ([1]; 100 μM to 1 mM): enhanced rates
shift of the sensitivity of the channels to block by lidocaine ([1]; C2 anchoring, FIG. 9): nearly two orders of magnitude
slow component of recovery from inactivation in modified channels [1]: not observed
reversal of the current decrease by DTT ([6]; 10 mM DTT after C2 washout): completely reversed
block of Na+ current by μM Cd2+ after washout of the agent ([6]; Cd2+ added after C2 washout): no longer blocked
change of whole-cell currents ([6]; following C2 washout (FIG. 7A)): decreased

The remaining lines, values behind:

Compound: CCOC(=O)c1ccc(N)cc1 [benzocaine, reference compound]
slow component of recovery from inactivation in modified channels [1]: not observed

Compound: Cc1cccc(C)c1NC(=O)CNCCSS(C)(=O)=O [Formula T2, 1-(2,6-dimethylphenyl)-2,8,8-trioxo-1,4-diaza-7,8-dithianonane]
use-dependence of Na+ channel current inhibition [1]: use-dependent

Compound: CCN(CC)CC(=O)Nc1c(C)cccc1C [lidocaine, reference compound]
use-dependent block [2, 8]: use-dependent block
tfast, first rapid phase of recovery from inactivation [2, 9]: 5.0 ms
tslow, second slow component of recovery from inactivation [2, 9]: 365 ms
use-dependent block [3, 8]: use-dependent block
tfast, first rapid phase of recovery from inactivation [3, 10]: 16.11 ms
tslow, second slow component of recovery from inactivation [3, 10]: 763 ms
